# Source: US12558393B2, “Compositions and methods of BDNF activation” (VDF Futureceuticals, Inc., priority 2013, dated 2026)
# System: BDNF plasma levels
# Assay: Plasma BDNF by ELISA in healthy fasted subjects after a single oral dose
# Format: in vivo, human
# Settings: 50 mg single dose, five healthy subjects (FIG. 2)
smiles,measurement,value
O=C(/C=C/c1ccc(O)c(O)c1)O[C@@H]1C[C@](O)(C(=O)O)C[C@@H](O)[C@H]1O [chlorogenic acid],"blood level of BDNF, increase",did not increase blood level of BDNF in a statistically significant manner
